Test results taken from patent US20230067811A1, “MODULATING LYMPHATIC VESSELS IN NEUROLOGICAL DISEASE” (University of Virginia Patent Foundation, priority 2020, published 2023).

System: WT mice
Experiment: In vivo measurement of CSF outflow into dCLNs (fluorescent microspheres)
Parameters: species or system mouse
Conditions: 1 week after photoablation
Protocol: Adult 2 months-old WT mice were injected (i.c.m.) with Visudyne (5 μL) followed by a transcranial photoconversion step (Vis./photo.) to ablate meningeal lymphatic vessels. Control mice were injected with Visudyne without photoconversion (Vis.). One week later, mice were injected with 5 μL of a suspension of fluorescent microspheres (1 μm in diameter) into the CSF and 15 minutes later the lymphatic vessel afferent to the deep cervical lymph node (dCLN) was imaged by in vivo stereomicroscopy. Representative images of skull cap show microspheres and lymphatic vessels stained for LYVE-1 around the confluence of sinuses (COS) and transverse sinus (TS) at the dorsal brain meninges or around the sigmoid (SS) and petrosquamosal (PSS) sinuses at the basal brain meninges (scale bars, 500 μm). […]
In vivo measurement of CSF outflow into dCLNs. […] Fluorescent microsphere drainage was analyzed in FIJI software by drawing a line demarcating the draining lymphatic vessel afferent to the dCLN and manually counting the beads passing the line by a blinded experimenter. […]

verteporfin [Visudyne]
CSF drainage (microspheres from the CSF into the dCLNs): significant reduction
